Measured values reported in patent US6638973B2, “Taxane formulations” (FSU Research Foundation, Inc., priority 2000, dated 2003).
Like-named read-outs stand apart in the source and are kept apart here.

Experiments:
[1] = intravenous, concentrations required to deliver therapeutic doses of paclitaxel; cited from earlier work
HCT116 cells = experiment: In vitro cytotoxicity measured by the cell colony formation assay; assay type: cell-based; conditions: colonies counted after 7 days, read-out: IN VITRO ID 50 (nm) HCT116
Summary of the method: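 Colony-forming survival was scored 7 days after a 72 h, 37 °C compound exposure followed by washout into fresh medium.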

[2] = HCT116 cells, 72 h incubation with drug, ID50 = drug concentration producing 50% inhibition of colony formation
[3] = HCT116 colony formation, 72 h drug incubation, Example 5, C-7 ester/C-10 hydroxy taxanes
[4] = HCT116 colony formation, 72 h drug incubation, Example 10, C-10 ester/C-7 hydroxy taxanes

## CC(=O)OCC(COC(C)=O)OC(C)=O [triacetin, glyceryl triacetate]
[1]
  toxicity to mice: toxic

## CCOC(=O)O[C@H]1C[C@H]2OC[C@@]2(OC(C)=O)C2[C@H](OC(=O)c3ccccc3)[C@]3(O)C[C@H](OC(=O)[C@H](O)[C@@H](NC(=O)c4ccccc4)c4cccs4)C(C)=C([C@@H](O)C(=O)[C@@]21C)C3(C)C (some centres unmarked) [Compound 4188]
HCT116 cells; [2]
  IC50: < 10 nM

## C/C=C/C(=O)N[C@@H](c1cccs1)[C@@H](O)C(=O)O[C@H]1C[C@@]2(O)[C@@H](OC(=O)c3ccccc3)C3[C@](C)(C(=O)[C@H](O)C(=C1C)C2(C)C)[C@@H](OC(=O)CCC)C[C@H]1OC[C@@]31OC(C)=O (some centres unmarked) [Compound 4757]
HCT116 cells; [3]
  IC50: < 1 nM

## COC(=O)O[C@H]1C(=O)[C@@]2(C)C([C@H](OC(=O)c3ccccc3)[C@]3(O)C[C@H](OC(=O)[C@H](O)[C@@H](NC(=O)OC(C)(C)C)c4cccs4)C(C)=C1C3(C)C)[C@]1(OC(C)=O)CO[C@@H]1C[C@@H]2O (some centres unmarked) [Compound 2044]
HCT116 cells; [2]
  IC50: < 1 nM

## CCC(=O)O[C@H]1C[C@H]2OC[C@@]2(OC(C)=O)C2[C@H](OC(=O)c3ccccc3)[C@]3(O)C[C@H](OC(=O)[C@H](O)[C@@H](NC(=O)c4ccccc4)c4ccco4)C(C)=C([C@@H](O)C(=O)[C@@]21C)C3(C)C (some centres unmarked) [Compound 4017]
HCT116 cells; [3]
  IC50: < 10 nM

## CC(=O)OC12COC1CC(O)C1(C)C(=O)C(OC(=O)C(C)C)C3=C(C)C(OC(=O)C(O)C(NC(=O)OC(C)(C)C)c4ccccn4)CC(O)(C(OC(=O)c4ccccc4)C21)C3(C)C (centres unmarked) [Compound 2238]
HCT116 cells; [4]
  IC50: < 1 nM

## C/C=C/C(=O)N[C@@H](c1ccco1)[C@@H](O)C(=O)O[C@H]1C[C@@]2(O)[C@@H](OC(=O)c3ccccc3)C3[C@](C)(C(=O)[C@H](OC(=O)COC)C(=C1C)C2(C)C)[C@@H](O)C[C@H]1OC[C@@]31OC(C)=O (some centres unmarked) [Compound 6066]
HCT116 cells; HCT116 colony formation, 72 h drug incubation, Example 20, C-10 substituted acetate/C-7 hydroxy taxanes
  IC50: < 1 nM

## CC(=O)O[C@@]12CO[C@@H]1C[C@H](O)[C@@]1(C)C(=O)[C@H](OC(=O)C3CC3)C3=C(C)[C@@H](OC(=O)[C@H](O)[C@@H](NC(=O)c4ccco4)c4cccs4)C[C@@](O)([C@@H](OC(=O)c4ccccc4)C12)C3(C)C (some centres unmarked) [Compound 3297]
HCT116 cells; [4]
  IC50: < 1 nM

## CC(=O)O[C@@]12CO[C@@H]1C[C@H](OC(=O)COc1ccccc1)[C@@]1(C)C(=O)[C@H](O)C3=C(C)[C@@H](OC(=O)[C@H](O)[C@@H](NC(=O)OC(C)(C)C)c4ccco4)C[C@@](O)([C@@H](OC(=O)c4ccccc4)C12)C3(C)C (some centres unmarked) [Compound 5616]
HCT116 cells; HCT116 colony formation, 72 h drug incubation, Example 15, C-7 substituted acetate/C-10 hydroxy taxanes
  IC50: < 1 nM

## CCCC(=O)O[C@H]1C[C@H]2OC[C@@]2(OC(C)=O)C2[C@H](OC(=O)c3ccccc3)[C@]3(O)C[C@H](OC(=O)[C@H](O)[C@@H](NC(=O)c4ccccc4)c4cccs4)C(C)=C([C@@H](O)C(=O)[C@@]21C)C3(C)C (some centres unmarked) [Compound 4175]
HCT116 cells; [3]
  IC50: < 10 nM

## C/C=C/C(=O)O[C@H]1C(=O)[C@@]2(C)C([C@H](OC(=O)c3ccccc3)[C@]3(O)C[C@H](OC(=O)[C@H](O)[C@@H](NC(=O)OC(C)(C)C)c4ccc([N+](=O)[O-])cc4)C(C)=C1C3(C)C)[C@]1(OC(C)=O)CO[C@@H]1C[C@@H]2O (some centres unmarked) [Compound 2439]
HCT116 cells; [4]
  IC50: < 10 nM

## CCOC(=O)O[C@H]1C(=O)[C@@]2(C)C([C@H](OC(=O)c3ccccc3)[C@]3(O)C[C@H](OC(=O)[C@H](O)[C@@H](NC(=O)OC(C)(C)C)c4ccccc4)C(C)=C1C3(C)C)[C@]1(OC(C)=O)CO[C@@H]1C[C@@H]2O (some centres unmarked) [Compound 1771]
HCT116 cells; [2]
  IC50: < 10 nM

## CCCC(=O)O[C@H]1C(=O)[C@@]2(C)C([C@H](OC(=O)c3ccccc3)[C@]3(O)C[C@H](OC(=O)[C@H](O)[C@@H](NC(=O)OCC(C)C)C4CC4)C(C)=C1C3(C)C)[C@]1(OC(C)=O)CO[C@@H]1C[C@@H]2O (some centres unmarked) [Compound 4808]
HCT116 cells; [4]
  IC50: < 10 nM

## C/C=C/C(=O)N[C@@H](c1ccco1)[C@@H](O)C(=O)O[C@H]1C[C@@]2(O)[C@@H](OC(=O)c3ccccc3)C3[C@](C)(C(=O)[C@H](O)C(=C1C)C2(C)C)[C@@H](OC(=O)OC)C[C@H]1OC[C@@]31OC(C)=O (some centres unmarked) [Compound 4744]
HCT116 cells; [2]
  IC50: < 1 nM
